These are literature values, as cited in paper PMC8086892 (Peptide science (Hoboken, N.J.), 2020).

For series [1] the following is noted: ref Orivel et al. [27].
For series [2] the following is noted: ref Orivel et al. [27]. The source holds these as a separate data set.

Turning to Ponericin L2, the Antimicrobial activity result in series [1] is “broad spectrum antimicrobial activity”. In series [2], the Hemolytic activity entry is “no detectable hemolytic activity”.
